# Experiments:
# CYP450 2C19 = CYP450 2C19 (Homo sapiens, UniProt P33261); assay: Cytochrome P450 inhibition, CYP2C19 (Eurofins Panlabs panel); type: in vitro ADME; settings: assayed at 10 μM
# Procedure: Cytochrome P450 Inhibition.
# Assessment of off-target effects of priority compounds. To assess potential off-target effects, we will evaluate prioritized hits validated by in vivo testing in the Eurofins Panlabs HitProfilingScreen+CYP450 assay panel, which is performed by Eurofins as a fee for service. The assay panel of consists of assays for 30 receptors and transporters plus the five major CYP450 enzymes (1A2, 2C19, 2C9, 2D6, 3A4).
# [1] = Kinetic aqueous solubility (nephelometric assay); type: physicochemical; settings: Table 1
# Excerpt: Solubility. The maximum aqueous solubility of analogs will be initially determined by nephelometry using a published method (44).
# [2] = system: P. aeruginosa T3SS-mediated secretion (exoT-luxCDABE reporter strain MDM852); assay: Luciferase (exoT-lux) transcriptional reporter assay of T3SS-mediated secretion; type: cell-based, Pseudomonas aeruginosa; settings: read-out: LUX Sec IC50; Table 1
# Excerpt: Luciferase Transcriptional Reporter Assay of T3SS-Mediated Secretion with a Luminescent Signal.
# A transcriptional fusion of the Photorhabdus luminescens lux operon (luxCDABE) to P. aeruginosa PAO1 T3SS effector gene exoT (PA0044) was constructed and used to build strain MDM852 as described previously (Aiello et al., 2010, Antimicrob Agents Chemother, 54:1988-1999). Induction of T3SS operons by Ca^++ depletion due to EGTA addition results in secretion of the T3SS negative regulator ExsE and the production of high levels of T3SS components including the luxCDABE gene products, which results in luminescence that is easily detected by a microplate reader. Inhibition of T3SS-mediated secretion of the negative regulator ExsE by a small molecule inhibitor causes reduced production of luxCDABE gene products and reduced luminescence. For inhibitor IC50 testing, compounds were added to a 96-well microplate in a concentration dilution series. Reporter strain MDM852 was grown at 37° C. in LBG to OD600 ~0.025-0.05, transferred into the microplate (50 uL/well) containing test compounds and EGTA (5 uL of 0.1 M stock solution), which was covered with a translucent gas-permeable seal (Abgene, Inc., Cat. No. AB-0718). […] Plates were incubated at room temperature for 300 min. Then, luminescence was measured in an Envision Multilabel microplate reader (PerkinElmer). The screening window coefficient, Z′-factor (see Zhang, et al., 1999, J. Biomol. Screen., 4:67-73), defined as the ratio of the positive and negative control separation band to the signal dynamic range of the assay, averaged 0.7 for the assay.
# [3] = system: P. aeruginosa T3SS-mediated secretion of ExoS-β-lactamase fusion protein; assay: Effector-β-lactamase (ExoS-βLA) reporter assay of T3SS-mediated secretion; type: cell-based, Pseudomonas aeruginosa; settings: read-out: ExoS-BLA IC50; Table 1
# Excerpt: Effector-β-Lactamase (βLA) Reporter Assay of T3SS-Mediated Secretion with an Absorbency Signal.
# A gene encoding the exoS promoter/regulatory region and an ExoS-β-lactamase (βLA) fusion protein (comprised of the full length P. aeruginosa T3SS effector ExoS fused in reading frame to the TEM-1 β-lactamase gene lacking secretion signal codons) was constructed by splicing by overlap extension PCR (SOE-PCR) (Choi and Schweizer, 2005, BMC Microbiol., 5:30), sequence confirmed, cloned into miniCTX and introduced into P. aeruginosa strain PAO1 to generate strains MDM1746 and MDM1838 as previously described for strain MDM1710 (Bowlin et al., 2014, Antimicrob Agents Chemother., 58:2211-2220). Secretion of ExoS-β-lactamase fusion protein following EGTA addition to induce the T3SS operons was detected by measuring the hydrolysis of the chromogenic β-lactamase substrate nitrocefin in clear 96-well microplates in a modification of a previously described assay (Lee, et al., 2007, Infect. Immun., 75:1089-98). Cells of strain MDM1746, or negative control MDM1838 (which fails to carry out T3SS secretion due to ΔpscF), were sub-cultured in the morning from overnight growths in LBG into 0.1 ml of LBGE with or without test compounds and grown for 150 min. Nitrocefin (100 μg/mL final) was added, and A490 measurements taken every minute for 15 min in a Victor^3V 1420 Multilabel HTS Counter (PerkinElmer). Slopes were calculated as a relative measure of the quantity of the effector-βLA fusion protein secreted and were absolutely dependent on induction with EGTA, and the presence of a functional pscF gene in the P. aeruginosa cells. Typical signal: background ratios were 6-10.
# Chain of CYP450 2C19 (P33261 whole entry): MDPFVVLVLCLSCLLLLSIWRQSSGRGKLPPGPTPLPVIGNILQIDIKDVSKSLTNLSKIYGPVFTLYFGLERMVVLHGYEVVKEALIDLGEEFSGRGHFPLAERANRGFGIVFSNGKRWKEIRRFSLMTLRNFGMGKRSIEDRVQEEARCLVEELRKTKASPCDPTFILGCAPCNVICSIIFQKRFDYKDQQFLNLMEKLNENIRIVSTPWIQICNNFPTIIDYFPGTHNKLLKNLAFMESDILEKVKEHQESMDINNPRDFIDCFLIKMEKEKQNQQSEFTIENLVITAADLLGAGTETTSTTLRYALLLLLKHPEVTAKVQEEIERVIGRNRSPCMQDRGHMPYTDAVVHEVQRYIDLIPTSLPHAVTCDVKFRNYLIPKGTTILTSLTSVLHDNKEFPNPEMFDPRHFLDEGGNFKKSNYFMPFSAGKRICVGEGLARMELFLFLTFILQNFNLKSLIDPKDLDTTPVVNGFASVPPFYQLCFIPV
smiles,measurement,setting,value
CCC(Oc1ccc(Cl)c(Cl)c1Cl)C(=O)NCc1ccc(F)cc1 (stereo not shown) [MBX-4532],"CYP450, 2C19",CYP450 2C19,80
same,Sol,[1],25 µM
same,IC50,[2],1630 nM
same,IC50,[3],1000 nM

# Source: patent US20260248774A1, “INHIBITORS OF BACTERIAL TYPE III SECRETION SYSTEM” (MICROBIOTIX, INC., priority 2022, published 2026)
